Here are results for 4 molecules from publication PMC6161018, “Synthesis, Structure–Activity Relationships and In Vitro Toxicity Profile of Lactose-Based Fatty Acid Monoesters as Possible Drug Permeability Enhancers” (Pharmaceutics, 2018).

Data set [1] relates to Calu-3 cells. Briefly: MTT cell viability assay. To be noted: Calu-3, 24 h exposure, 50% reduction of viable cells; for IC50: Homo sapiens. In kind it is cell-based. The protocol:
(§1) Caco-2 and Calu-3 cells were seeded in sterile 96-well culture plates at a density of 3 × 10^4 cells per well. The cells were incubated to attain at least 80% confluence before the experiment. Stock solutions of surfactants were prepared in phosphate buffered saline (PBS). They were diluted at various concentrations (from 0.0078 to 1 mg/mL) in cell culture medium before added to the cells. Complete culture media were used as control. The cytotoxic effect of each surfactant was evaluated using the MTT cell viability assay. After 24 h of incubation, surfactant solution was discarded and replaced by MTT solution (0.8 mg/mL). The cells were subjected to MTT treatment for 2 h. Formazan crystals formed were then dissolved in absolute isopropanol and incubated with gentle shaking at room temperature for 15 min. Absorbance was measured at 570 nm using a microplate reader (Multiskan™ GO Microplate Spectrophotometer Thermo Scientific, Waltham, MA, USA). Percentage of viable cells was calculated using untreated cells as control with 100% cell viability. The percentage of viable cells was plotted against log concentration of the surfactants. IC50 (mg/mL), the concentration of surfactant that caused a 50% reduction in cell viability was calculated by fitting the experimental data with dose–response model (Prism 6, Version 6.0b, GraphPad Software).
On the technique in general: Tetrazolium assays rely on reduction of a dye to a coloured formazan, in cell work by metabolically active cells.

Data set [2] concerns Caco-2 cells. The data set can be described thus: MTT cell viability assay. In kind it is cell-based. The note with it: Caco-2, 24 h exposure, 50% reduction of viable cells; for IC50: Homo sapiens. The protocol: as §1
The test system of the next data set is Calu-3 cell monolayer. The data set can be described thus: Trans-epithelial electrical resistance (TEER) measurement. It counts as cell-based. To be noted: Calu-3 monolayer, apical, 2 h, applied at MTT IC50 and at highest 100% viability concentration. How it is done: (§2) Caco-2 and Calu-3 cells were seeded at a density of 2 × 10^5 cells per well on filter inserts (Transwell® Permeable Support 12 mm Insert, Corning Life Sciences, Tewksbury, MA, USA) and cultured to confluence under air-liquid interface conditions. Culture media on the baso-lateral sides of the cells were changed every 24 h. For TEER measurements, culture medium was discarded from the cell layer and replaced with Kreb’s Balanced Saline Solutions (KBSS) on both the apical and baso-lateral sides of the monolayers. Cell layers were allowed equilibrating in KBSS at 37 °C, 5% CO2 for 45 min prior to sample application. Baseline TEER was measured before the treatment with surfactants. For each surfactant, concentrations that caused 50% cell viability, and the highest concentration that maintained 100% cell viability (according to the MTT assay) were added to the apical sides of the cell layers and incubated for 2 h. TEER was then measured at 5, 30, 60, 90 and 120 min after surfactant addition. Between TEER measurements, cells were incubated at normal cell culture conditions. After 120 min, surfactant was removed, and culture media were added to both sides of the filter inserts. TEER measurement was conducted again after 24 h to evaluate the recovery of cell monolayers. A volt-ohmmeter (Millcell® ERS-2 Voltohmmeter, Millipore, Burlington, MA, USA) equipped with a pair of electrodes was used for TEER measurement. Baseline TEER measured from cell layers incubated in KBSS was used as control and the change in TEER was presented as a percentage relative to baseline value. Three independent experiments were performed in duplicate.

Data set [3] is described as follows: Surface tension measurements (tensiometry), CMC determination. In kind it is physicochemical. To be noted: for Amin (minimum area per surfactant molecule): air-water interface, calculated from Γmax; for γCMC (surface tension at CMC) / CMC (critical micelle concentration): in water, room temperature; for CMC (critical micelle concentration): straight-line interception method; for Γmax × 10^−6 (maximum surface excess): values × 10^−6, Gibbs equation from surface tension plot. How it is done: Surface tension of different concentrations of surfactant solutions in water was measured using a platinum cylindrical rod probe with wetted length of 1.6 mm (K100-Krüss force tensiometer, Hamburg, Germany) at room temperature. Approximately 1 mL of each surfactant solution was placed onto a Teflon plate and the surface of the liquid was aspirated to remove any remaining impurities. Then, the rod probe was immersed 2 mm into the liquid. Data are expressed as the mean of three repeated measurements performed at room temperature. The critical micelle concentration and the surface tension at the CMC (γCMC) were calculated through the straight-line interception method, while the Gibbs surface excess (Γmax) was calculated from the following equation:(1) Γmax=1/2.303 × n × R × T (δγ/δlogC) where T is the absolute temperature, R is the gas constant (8.314 J/mol K), C is the surfactant concentration, n = 1 for a non-ionic candidate. δγ/δlogC was calculated from the maximum slope of the plot surface tension vs. surfactant concentration in the linear region before CMC.
The minimum area per surfactant molecule at the air-water interface (Amin) was determined as follow:(2) Amin= 10^18/N × Γmax where N is the Avogadro number.

Data set [4] has as its system Calu-3 cells. Briefly: Lactate dehydrogenase (LDH) release assay. It counts as cell-based. To be noted: Calu-3, 24 h exposure, 50% release of LDH; for IC50: Homo sapiens. How it is done:
(§3) Caco-2 and Calu-3 cells were seeded in sterile 96-well culture plates at a density of 3 × 10^4 cells per well. Surfactant solutions (at the same concentration as in MTT assay described above) were added to the cells and incubated at 37 °C for 24 h. Triton X-100 at 1% v/v was used as positive control. LDH release assay was conducted according to the manufacturer’s protocol. The percentage of released LDH was calculated relative to the controls by taking samples treated with Triton X-100 as complete LDH release and untreated cells as nil LDH release.
(§4) The concentration of surfactant that caused a 50% release of LDH (IC50, mM), was calculated by fitting the experimental data with dose–response model (Prism 6, Version 6.0b, GraphPad Software).

Data set [5] deals with Caco-2 cells. Briefly: Lactate dehydrogenase (LDH) release assay. It counts as cell-based. To be noted: Caco-2, 24 h exposure, 50% release of LDH. How it is done:
as §3, §4

Data set [6] has as its system Calu-3 cells. The data set can be described thus: Mitochondrial membrane potential (JC-1 assay). It counts as cell-based. To be noted: Calu-3, 24 h in HBSS, same concentrations compared. How it is done:
(§5) Caco-2 and Calu-3 cells were seeded in sterile 96 well plates at a density of 1 × 10^4 cells per well and cultured for 24 h. As above, surfactant solutions were applied in Hank’s balanced salt solution (HBSS) for 24 h. One millimolar FCCP was employed as the positive, mitochondrial depolarizing control. Following exposure, treatments were removed and cells were washed twice with PBS prior to the addition of 50 µL (5 µg/mL) JC-1 dye diluted in complete DMEM (without antibiotics) per well for 15 min at 37 °C. Dye solution was then removed and wells washed with PBS followed by addition of 50 µL/well PBS prior to measuring fluorescence at 550/600 nm (λex/λem) for detection of JC-1 J-aggregates and 485/535 nm (λex/λem) for detection of JC-1 monomers. A ratio between JC-1 aggregates and JC-1 monomer signals was then taken, and data normalized by setting the untreated control as a value of 1.0 and the positive control (1.0 mM FCCP) as a value of 0.0.

In data set [7] the test system is Caco-2 cells. The data set can be described thus: Mitochondrial membrane potential (JC-1 assay). It counts as cell-based. The note with it: Caco-2, 24 h in HBSS, same concentrations compared. How it is done:
as §5

The subject of a further data set is Caco-2 cell monolayer. Briefly: Trans-epithelial electrical resistance (TEER) measurement. It counts as cell-based. The note with it: Caco-2 monolayer, apical, 2 h; applied at MTT IC50 and at highest 100% viability concentration. The protocol:
as §2

Values joined by “and” are separate entries in the source; they are usually repeats but may differ in a detail not shown here. Equal values may be shown once.

Usually IC50 stands for the concentration needed to halve the response being measured. A high value points to weaker potency in that assay. For the molecule `CCCCCCCCCC(=O)OC[C@H]1O[C@@H](O[C@H]2[C@H](O)[C@@H](O)[C@@H](O)O[C@@H]2CO)[C@H](O)[C@@H](O)[C@H]1O` [Lactose caprate, 6′-O-Decanoyl-4-O-(β-D-galactopyranosyl)-D-glucopyranose], the “MTT Assay IC50” value with Calu-3 cells [1] and with Caco-2 cells [2] was “higher than the tested concentration range” each time. Moreover, the IC50 was more than 2000 µM in the data set with Calu-3 cells [1]; more than 2000 µM with Caco-2 cells [2]; more than 2000 µM in the data set on Calu-3 cells [4]; more than 2000 µM in the data set on Caco-2 cells [5] (Homo sapiens, Caco-2, 24 h). Besides, the “effect on TEER” value with Calu-3 cell monolayer was “more significant decrease in TEER in Calu-3 cells compared to Caco-2 cells”; in the data set with Calu-3 cell monolayer (listed as lactose caprate), “only slightly affected the TEER”. The “Amin (minimum area per surfactant molecule)” value in data set [3] is on record as 17.46 ± 0.25 Å^2. Besides, the results for the “γCMC (surface tension at CMC)” value in [3] and in data set [3] (listed as lactose caprate) were 40.6 ± 0.04 mN/m and “around 40 mN/m”, respectively. In addition, in data set [3], the “CMC (critical micelle concentration)” value worked out at 2.58 ± 0.32 mM. For the same molecule, the “Γmax × 10^−6 (maximum surface excess)” value in [3] stood at 9.52 ± 0.11 mol/m^2. Further, the “LDH Assay IC50” value in the data set on Calu-3 cells [4] and in the data set on Caco-2 cells [5] was “higher than the tested concentration range” throughout.
In the data set with Calu-3 cells [1], `CCCCCCCCCCCCCC(=O)OC[C@H]1O[C@@H](O[C@H]2[C@H](O)[C@@H](O)[C@@H](O)O[C@@H]2CO)[C@H](O)[C@@H](O)[C@H]1O` [Lactose myristate, 6′-O-Tetradecanoyl-4-O-(β-D-galactopyranosyl)-D-glucopyranose] had an IC50 of 261 µM. This molecule returned a 50% inhibitory concentration (IC50) in the data set on Caco-2 cells [2] of 112 µM. In data set [3], the “Amin (minimum area per surfactant molecule)” value was 19.86 ± 0.80 Å^2, the “γCMC (surface tension at CMC)” value is reported as 45.6 ± 0.19 mN/m, the “CMC (critical micelle concentration)” value came to 0.14 ± 0.05 mM and the “Γmax × 10^−6 (maximum surface excess)” value was 8.37 ± 0.46 mol/m^2. The midpoint of inhibition in the data set with Calu-3 cells [4], the IC50, lay at 189 µM. The IC50 in the data set on Caco-2 cells [5] (Homo sapiens, Caco-2, 24 h) came to 194 µM.
Turning to `CCCCCCCCCCCCCCCC(=O)OC[C@H]1O[C@@H](O[C@H]2[C@H](O)[C@@H](O)[C@@H](O)O[C@@H]2CO)[C@H](O)[C@@H](O)[C@H]1O` [Lactose palmitate, 6′-O-Esadecanoyl-4-O-(β-D-galactopyranosyl)-D-glucopyranose], the IC50 with Calu-3 cells [1] turned out to be 122 µM; with Caco-2 cells [2], 60 µM; in the data set on Calu-3 cells [4], 142 µM; with Caco-2 cells [5] it was 163 µM; in the data set with Caco-2 cells [5] (Homo sapiens, Caco-2, 24 h), 194 µM. In addition, in data set [3], the “Amin (minimum area per surfactant molecule)” value is recorded as 25.69 ± 0.43 Å^2. Also, the “γCMC (surface tension at CMC)” value in data set [3] was found to be 45.1 ± 0.33 mN/m. Moreover, the “CMC (critical micelle concentration)” value in [3] is 0.08 mM and 0.08 ± 0.03 mM. Further, the “Γmax × 10^−6 (maximum surface excess)” value in data set [3] is given as 6.46 ± 0.11 mol/m^2. Moreover, the “mitochondrial membrane potential (J-aggregates:J-monomers ratio)” value in the data set with Calu-3 cells [6] and in the data set on Caco-2 cells [7] was “highest cytotoxic effect” each time.
`CCCCCCCCCCCC(=O)OC[C@H]1O[C@@H](O[C@H]2[C@H](O)[C@@H](O)[C@@H](O)O[C@@H]2CO)[C@H](O)[C@@H](O)[C@H]1O` [Lactose laurate, 6′-O-Dodecanoyl-4-O-(β-D-galactopyranosyl)-D-glucopyranose]: the IC50 in the data set with Calu-3 cells [1] turned out to be 1070 µM; in the data set on Caco-2 cells [2], 376 µM; in the data set on Calu-3 cells [4] it was 452 µM; in the data set with Caco-2 cells [5] (Homo sapiens, Caco-2, 24 h), 597 µM. Further, the “effect on TEER” value in the data set with Calu-3 cell monolayer was “most effective surfactant in decreasing the TEER at both tested concentrations”; in the data set with Caco-2 cell monolayer, “moderate reduction of TEER”. The “Amin (minimum area per surfactant molecule)” value in [3] is listed as 17.45 ± 0.09 Å^2. Besides, the “γCMC (surface tension at CMC)” value in [3] is on record as 40.4 ± 0.02 mN/m; in [3] (listed as lactose laurate), “around 40 mN/m”. For the same molecule, the “CMC (critical micelle concentration)” value in [3] is recorded as 0.55 ± 0.02 mM. The “Γmax × 10^−6 (maximum surface excess)” value in data set [3] came out at 9.52 ± 0.05 mol/m^2.
